The record followed here is a melting point compilation (Tetko et al.; mined from patent text by program, amines drawn as free bases though some values may be those of a salt).

`COc1ccccc1CNC(=O)c1ccc2c(c1)N(C(C)CN1CCCC1)c1ccccc1S2` (racemic) showed a melting point of 127 °C.
As for `COc1cc(NC(=O)c2c(Cl)cccc2Cl)c2ncccc2c1`, the melting point fell in the range of 180 to 182 °C.
To `O=C1CN=C(C2CCCCC2)c2cc(Cl)ccc2N1` belongs 210 °C; to `CCCOC(=O)Nc1nc(=O)n(C2OC(C)C(O)C2O)cc1F` (stereo not drawn), 125 to 126 °C; to `CN1CCN(c2cccc3ccc(NCc4cccc5ccccc45)cc23)CC1`, 140 to 141 °C.
To `CCCCCCCCCCCCCCCCNC(=O)CC#N` belongs 95.5 to 96.5 °C; to `COc1nc2cc(F)ccc2nc1Cl`, 93 to 95 °C.
To `CS(=O)(=O)Oc1cc(OS(C)(=O)=O)cc(OS(C)(=O)=O)c1` belongs 145 to 149 °C; to `CC(C)(c1ccccc1)c1ccc(OCC(=O)O)c(C(C)(C)c2ccccc2)c1`, 114 °C; to `CCOCC(=O)Nc1cccc(NC)c1C#N`, 133 to 134 °C.
Take `Cc1cc(COc2ccc(Oc3ccccc3)cc2)on1`: the melting point lay in the range of 48 to 51 °C.
To `CCC1CC(=O)c2cc(C(C)C(N)=O)ccc2O1` (stereo not drawn) belongs 148 to 150 °C; to `COc1cc(C=CC(=O)Cc2ccccc2)ccc1O`, 85 to 87 °C.
`O=C1Cc2cc3c(cc2C(c2ccc([N+](=O)[O-])cc2Cl)=NN1)OCO3` registered a melting point of 202 to 204 °C.
Next, `CCc1c(Br)c(C#N)nn1C`: 72 to 74 °C; `Fc1cc(Cl)c2nc(Cl)sc2c1N=C=S`: 80 to 81 °C; `CCOC(=O)NC(=O)N(O)Cc1c(C)n(C(=O)c2ccc(Cl)cc2)c2ccc(OC)cc12`: 148 °C.
The compound `FC(F)(F)c1cc(Cl)c(-n2ncc(-c3nc(C(F)(F)F)c[nH]3)n2)c(Cl)c1` registered a melting point of 262 to 264 °C.
The compound `O=c1ccn(-c2cccc(C(F)(F)F)c2)nc1-c1ccnn1-c1ccccn1` displayed a melting point of 189 to 190 °C.
Next, `COC(=O)c1ccc(NC(=O)Nc2ccc(OC)c(C34CC5CC(CC(C5)C3)C4)c2)cc1`: 223 to 224 °C; `N#CCOc1cccc2c1SCCC2`: 66 °C.
Next, `CCOP(=S)(CNSCNC(=O)ON=C(C)SC)OCC`: 72 to 73 °C; `ClCc1ccc(-c2ccccc2)cn1`: 73 °C.
Next, `CC(C)N(c1cccc2cc(C(N)=S)[nH]c12)S(=O)(=O)c1cccs1`: 204 to 205 °C; `Cc1cc(-c2csc(-c3ccc(C(=O)O)cc3)n2)c(C)s1`: 239 to 240 °C; `COc1ccc(Br)cc1-c1cc(-c2cccc(Br)c2)on1`: 149 to 150 °C.
Regarding `CCn1cc(C(=O)NCCc2ccccc2)c(=O)c2cnc(N3CCCC3)nc21`, the melting point was in the range of 178 to 180 °C.
Compound `CCOCc1cc2ccccc2oc1=Nc1ccc(CC)cc1` gave a melting point of 104 to 105 °C.
`O=C1Nc2ccccc2S(=O)(=O)N1C1CCN(Cc2ccccc2)CC1` registered a melting point of 169 to 171 °C.
`CNC(=O)Cc1cc(=O)oc2cc(OCc3cccc(Cl)c3)ccc12` registered a melting point of 174 to 175 °C.
In the case of `Cc1c(NC(=O)c2ccc(-c3ccc(F)cc3)cc2)ccc2cc(CN3CCCC3C3CCCCC3)cnc12` (stereo not drawn), the melting point was 204 to 205 °C.
To `CN(C)S(=O)(=O)c1cccc2c1Sc1ccc(O)cc1N2CCCN1CCC(CCO)CC1` belongs 163 to 165 °C; to `O=c1[nH]c(=S)c2[nH]cnc2n1Cc1ccc(Cl)cc1`, 274 to 278 °C.
As to `CC(=O)C1c2cccc(O)c2C(=O)c2c(O)cccc21`, the melting point was found to be 146 °C.
Next, `CCN1CCN(c2c(F)c(N)c3c(=O)c(C(=O)O)cn(C4CC4)c3c2F)CC1`: 236 to 237 °C; `N#Cc1cccnc1N1CCN(CC(=O)Nc2ccccc2F)CC1`: 78 to 79 °C; `COP(=O)(OC)C1=C(C)NC(C)=C(C(=O)OCCN(C)Cc2ccccc2)C1c1cccc([N+](=O)[O-])c1` (stereo not drawn): 101 to 103 °C.
To `Cc1nc(-c2ccc(NS(=O)(=O)c3sc4ccc(F)cc4c3C)c(S(C)(=O)=O)c2)cs1` belongs 217 to 220 °C; to `O=c1c2cc(F)ccc2nc(C(S)c2ncnc3[nH]cnc23)n1-c1ccccc1Cl` (stereo not drawn), 233 °C; to `O=C(O)C1=Cc2cc(SC(F)(F)F)ccc2OC1C(F)(F)F` (stereo not drawn), 139 to 143 °C.
Regarding `C#CC(C)(O)C1CCC2C3CC=C4CC(OC)CCC4(C)C3CCC21C` (stereo not drawn), the melting point is 175 to 176 °C.
Next, `CCCC1=C(C(=O)OCC)C(c2ccccc2Cl)c2cn(C(=O)Oc3ccccc3)nc2N1` (stereo not drawn): 156 to 157 °C; `O=C(Nc1ccc(OCc2ccncc2)c2ccccc12)c1cc(F)cc(N2CCOCC2)c1`: 157 to 159 °C; `CCC(=O)C(O)(Cc1ccc(Cl)cc1Cl)c1cccnc1` (stereo not drawn): 145 to 146 °C.
Next, `Cc1onc(NS(=O)(=O)c2ccccc2-c2ccc(-c3ncccn3)cc2CN2CCC(C)(C)C2=O)c1C`: 125 to 132 °C.
`CCOCn1nccc1C(=O)c1ccc(O)c(Cl)c1Cl` returned a melting point of 115 to 117 °C.
To `COc1cc(C#N)cc(-c2ccc3c(c2)C(C)(C)OC(=S)N3)c1` belongs 201 to 202 °C.
As to `CCCN(CCCc1c[nH]c2c(F)cc(F)cc12)C1COc2c(C(N)=O)ccc(F)c2C1` (stereo not drawn), the melting point was found to be 130 °C.
On to `COc1cc(N)ccc1-c1nc(-c2cccnc2)c(C)[nH]1`, for which the melting point lay within 95 to 100 °C.
Next, `CCc1c([N+](=O)[O-])c(C(N)=O)nn1CCN1CCOCC1`: 132 to 133 °C; `CC(C)(C)C(=O)Oc1ccc(-c2nnn(Cc3ccccc3)n2)cc1`: 131 to 134 °C; `O=C(c1ccccc1)c1cccc2c1CCC2C(=O)O` (stereo not drawn): 100 to 102 °C.
Next, `Cc1nc(Cn2c(NC3CCN(CCc4c(C)nc5sccn5c4=O)CC3)nc3ccccc32)cs1`: 130 °C; `CC1CCN(C(=O)C(Cc2cc3c(N)nccc3s2)NS(=O)(=O)c2ccc(OC3CCOCC3)cc2)CC1` (stereo not drawn): 127 to 129 °C; `CC(N)Cn1cc(-c2ccccc2)c2ccccc2c1=O` (stereo not drawn): 104 °C.
Compound `CCOC(=O)C(C)(C)CCCCOc1cc(C)c(N)c(C)c1` registered a melting point of 32 to 34 °C.
To `CN(c1cccc2cc(-c3ncc(CCC#N)s3)[nH]c12)S(=O)(=O)c1cccs1` belongs 207 to 208 °C.
`COc1cc2c(cc1OC)CN(NC1=NCCN1)C2` gave a melting point of 191 to 192 °C.
Take `COCC1CCCN1CCC1CCN(c2nc(=O)c3c(C)c(OC)c(OC)cc3[nH]2)CC1` (stereo not drawn): the melting point was in the range of 83.1 to 111 °C.
For `S=C(N1CCOCC1)C1(c2ccccn2)CCCS1` (stereo not drawn), the melting point came out at 139 °C.
To `COC(=O)C(=NO)c1nc2c(C)c(Cl)ccc2oc1=O` belongs 190 to 191 °C; to `COc1ccc(C2COc3c(ccc(O)c3C)C2)cc1` (stereo not drawn), 140 to 141 °C.
To `CC(=O)N1CC(CCN2CCC(c3c[nH]c4cc(Cl)ccc34)CC2)c2ccccc21` (stereo not drawn) belongs 188 to 190 °C; to `CCCn1c(=O)c2[nH]c(/C=C/c3ccc(Cl)c(Cl)c3)nc2n(CCC)c1=O`, 195 to 202 °C.
On to `CCn1ncc2c(NCC3CCCCC3)c3cc(OCC4CO4)ccc3nc21` (stereo not drawn), for which the melting point is 160 to 163 °C.
To `CCCCOC(=O)c1cc([N+](=O)[O-])c(Oc2ccc(OCc3ccccc3)cc2)c(S(N)(=O)=O)c1` belongs 138 to 144 °C; to `CN(CC(=O)O)C(=O)C(=O)c1cn(Cc2ccccc2)c2ccc(-c3cccc(OC(F)(F)F)c3)cc12`, 178 to 179 °C; to `O=C(CCl)Nc1ccc2c(c1)C(=O)c1cc(NC(=O)CCl)ccc1C2=O`, 286 °C.
`COc1cc(Cl)c(NS(C)(=O)=O)cc1C(=O)NCC1CCCO1` (stereo not drawn) registered a melting point of 159 to 160 °C.
`O=C(O)c1cnoc1-c1ccc(Cl)cc1Cl` came in with a melting point of 122 to 123 °C.
Next, `Cc1nc(C2OC(CO)C(O)C2O)c(N)nc1OCc1ccccc1` (stereo not drawn): 152 to 153 °C; `Cc1cc(CC(=O)NCc2cccc3c2C(=O)N(C2CCC(=O)NC2=O)C3=O)c(C)o1` (stereo not drawn): 193 to 195 °C; `COc1c(C)c(C)c(OC)c(C(O)(c2cccnc2)C2CCCC2)c1C` (stereo not drawn): 126 to 127 °C.
Next, `COC(=O)c1ccc(-c2nn(Cc3ccccc3)c3ccc([N+](=O)[O-])cc23)o1`: 134 to 135 °C.
To `CC(=O)Nc1cnc(-c2ccc(CC(C)N3CC(c4cccc(Cl)c4)OC3=O)cc2)o1` (stereo not drawn) belongs 78 to 88 °C; to `CCCc1c(OCCCOc2cc(N)c(Cl)cc2C)ccc(C(C)=O)c1O`, 81 °C; to `Cc1ccc(S(=O)(=O)n2ccnc2C(O)(c2ccccc2)c2ccccc2Cl)cc1` (stereo not drawn), 165 to 167 °C.
In the case of `COC(=O)c1ccc(Cc2cn(C)c3ccc(CCNC(=O)N4CCOCC4)cc23)c(OC)c1`, the melting point was 160 to 161 °C.
As to `N#Cc1cnc2c(Br)csc2c1Cl`, the melting point lay within 176 to 178 °C.
Next, `O=C(O)C(CC1CCCC1)c1ccc(C#Cc2ccccn2)cc1` (stereo not drawn): 143 to 147 °C; `CC(C)Oc1ccc(-c2nc(-c3ccc(OC(C)C)cc3O)nc(-c3ccc(OC(C)C)cc3O)n2)c(O)c1`: 122 °C; `Cc1ccc(C(=O)OCc2c3ccccc3cc3ccccc23)cc1`: 124 °C.
Next, `CCNC(=O)c1sc(S(C)=O)cc1[Si](C)(C)C` (stereo not drawn): 71 to 76 °C.
To `CCN(CC1CCCC1)c1nc2c(cc1CN(Cc1cc(C(F)(F)F)cc(C(F)(F)F)c1)C(N)=O)c(C)nn2C` belongs 139 °C; to `c1ccc(C(OC2CCN(CCCn3cnc4ccccc43)CC2)c2ccccc2)cc1`, 110 °C; to `COc1snc(OCC#CI)c1C#N`, 159 to 160 °C.
Consider `COc1ccc(OCc2cccc(C(=O)O)c2)cc1Cc1cnc(N)nc1N`, for which the melting point was 140 °C.
Next, `Cc1c(Br)c(C(F)(F)F)nn1C(C)C(=O)N(C)C` (stereo not drawn): 86 to 88 °C.
